Measured values published in patent US20050203127A1, “2-(Phenyl)-2h-pyrazole-3-carboxylic acid-n-4-(thioxo-heterocyclyl)-phenyl-amide derivatives and corresponding imino-heterocyclyl derivatives and relates compounds for use as inhibitors of the coagulation factors xa and/or viia for treating thromboses” (priority 2002, published 2005).
pIC50: −log10 of the molar value.

Key:
factor Xa = factor Xa (Homo sapiens, UniProt P00742); experiment: Factor Xa inhibition (FXa-IC50); assay type: biochemical
factor Xa, sequence (P00742 235-488 limits assumed): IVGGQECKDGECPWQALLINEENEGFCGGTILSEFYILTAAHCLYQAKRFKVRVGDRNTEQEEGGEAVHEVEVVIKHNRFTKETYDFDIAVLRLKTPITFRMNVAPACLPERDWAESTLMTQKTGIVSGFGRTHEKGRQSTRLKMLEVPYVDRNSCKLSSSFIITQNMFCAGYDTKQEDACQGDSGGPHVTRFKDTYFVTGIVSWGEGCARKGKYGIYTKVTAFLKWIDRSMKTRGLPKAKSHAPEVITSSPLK
factor Xa, sequence (P00742 41-179 limits assumed): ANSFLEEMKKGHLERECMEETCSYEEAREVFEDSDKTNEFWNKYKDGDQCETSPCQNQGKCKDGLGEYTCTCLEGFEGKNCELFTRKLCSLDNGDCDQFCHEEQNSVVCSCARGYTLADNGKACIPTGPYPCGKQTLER
Text: The inhibition of factor Xa by the compounds according to the invention and the measurement of the anticoagulant and antithrombotic activity can be determined by conventional in-vitro or in-vivo methods. A suitable method is described, for example, by J. Hauptmann et al. in Thrombosis and Haemostasis 1990, 63, 220-223.
The inhibition of factor Xa can be measured, for example by the method of T. Hara et al. in Thromb. Haemostas. 1994, 71, 314-319.

TF/FVIIa = TF/FVIIa (Homo sapiens, UniProt P08709); experiment: TF/factor VIIa inhibition (TF/FVIIa-IC50); assay type: biochemical
TF/FVIIa, sequence (P08709 213-466 limits assumed): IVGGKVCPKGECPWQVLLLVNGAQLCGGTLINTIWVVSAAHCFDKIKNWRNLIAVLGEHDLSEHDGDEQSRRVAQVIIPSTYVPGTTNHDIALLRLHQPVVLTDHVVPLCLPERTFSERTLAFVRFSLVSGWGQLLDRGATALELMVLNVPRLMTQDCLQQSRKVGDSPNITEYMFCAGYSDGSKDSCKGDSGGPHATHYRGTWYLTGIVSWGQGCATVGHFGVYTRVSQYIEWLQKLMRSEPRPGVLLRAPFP
TF/FVIIa, sequence (P08709 61-212 limits assumed): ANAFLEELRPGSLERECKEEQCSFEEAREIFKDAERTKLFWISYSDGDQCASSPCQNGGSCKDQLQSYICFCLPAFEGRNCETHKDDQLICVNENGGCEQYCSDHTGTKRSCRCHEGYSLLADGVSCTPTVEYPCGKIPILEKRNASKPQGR
TF/FVIIa, sequence (P13726 33-295 partner): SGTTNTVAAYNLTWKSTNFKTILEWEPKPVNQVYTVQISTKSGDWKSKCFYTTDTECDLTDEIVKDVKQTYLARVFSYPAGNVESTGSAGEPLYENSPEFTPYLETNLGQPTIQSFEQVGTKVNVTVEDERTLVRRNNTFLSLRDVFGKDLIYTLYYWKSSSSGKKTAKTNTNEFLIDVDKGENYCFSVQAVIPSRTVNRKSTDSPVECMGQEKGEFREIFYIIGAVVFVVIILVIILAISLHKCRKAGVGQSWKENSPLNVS
Text: The inhibition of factor VIIa by the compounds according to the invention and the measurement of the anticoagulant and antithrombotic activity can be determined by conventional in-vitro or in-vivo methods. A conventional method for the measurement of the inhibition of factor VIIa is described, for example, by H. F. Ronning et al. in Thrombosis Research 1996, 84, 73-81.

SMILES	pIC50 (factor Xa)	pIC50 (TF/FVIIa)
N=C1CCCN1c1ccc(NC(=O)c2cc(C(F)(F)F)nn2-c2cccc(CN)c2)cc1 [AA, N-[4-(2-iminopyrrolidin-1-yl)phenyl]-2-(3-aminomethylphenyl)-5-trifluoromethyl-2H-pyrazole-3-carboxamide]	8.02	7.64
NC(=O)c1cccc(-n2nc(C(F)(F)F)cc2C(=O)Nc2ccc(N3CCCC3=S)c(Cl)c2)c1 [BB, N-[3-chloro-4-(2-thioxopyrrolidin-1-yl)phenyl]-2-(3-aminocarbonylphenyl)-5-trifluoromethyl-2H-pyrazole-3-carboxamide]	6.48	6.74
N#CN=C1NCCN1c1ccc(NC(=O)c2cc(C(F)(F)F)nn2-c2cccc(C(N)=O)c2)cc1 [CA, N-[4-(2-cyanoiminoimidazolidin-1-yl)phenyl]-2-(3-aminocarbonylphenyl)-5-trifluoromethyl-2H-pyrazole-3-carboxamide]	6.70	7.16
CCc1nn(-c2ccc(NC(=O)c3cc(C(F)(F)F)nn3-c3cccc(C(N)=O)c3)cc2)c(=N)s1 [CB, N-[4-(2-imino-5-ethyl-3H-1,3,4-thiadiazol-3-yl)phenyl]-2-(3-aminocarbonylphenyl)-5-trifluoromethyl-2H-pyrazole-3-carboxamide]	7.04	6.82
